The text below walks through data of PubChem BioAssay AID200 (DTP/NCI, 2004).

The subject of this experiment is B6C3F1 mice, B16 melanoma ip, median survival T/C. Nature of the experiment: NCI In Vivo Anticancer Drug Screen. Data for tumor model B16 Melanoma (intraperitoneal) in B6C3F1 mice. The settings on record: endpoint: median survival time, higher = longer survival. The gist of the method:
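Transplantable tumor in mice; treated vs vehicle control groups; survival or tumor size measured; value = T/C ratio.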

Where [1] appears, read: dose: 100.0 mg/kg/injection, schedule: Q01DX009 (ip), vehicle: saline.
The mark [2] stands for this setting: dose: 200.0 mg/kg/injection, schedule: Q01DX009 (ip), vehicle: saline.
Setting [3] is: dose: 400.0 mg/kg/injection, schedule: Q01DX009 (ip), vehicle: saline.
[4] abbreviates: dose: 3.12 mg/kg/injection, schedule: Q01DX009 (ip), vehicle: saline.
The mark [5] stands for this setting: dose: 6.25 mg/kg/injection, schedule: Q01DX009 (ip), vehicle: saline.
[6] abbreviates: dose: 12.5 mg/kg/injection, schedule: Q01DX009 (ip), vehicle: saline.
[7] abbreviates: dose: 25.0 mg/kg/injection, schedule: Q01DX009 (ip), vehicle: saline.
Where [8] appears, read: dose: 12.5 mg/kg/injection, schedule: Q01DX009 (ip), vehicle: saline with Tween-80.
Setting [9] is: dose: 25.0 mg/kg/injection, schedule: Q01DX009 (ip), vehicle: saline with Tween-80.
The mark [10] stands for this setting: dose: 50.0 mg/kg/injection, schedule: Q01DX009 (ip), vehicle: saline with Tween-80.
[11] abbreviates: dose: 100.0 mg/kg/injection, schedule: Q01DX009 (ip), vehicle: saline with Tween-80.
[12] abbreviates: dose: 50.0 mg/kg/injection, schedule: Q01DX009 (ip), vehicle: saline.

Values joined by “and” are separate entries in the source; they are usually repeats but may differ in a detail not shown here. Equal entries are not always repeated. Toxic doses and inconclusive results are not listed.

As to `CSC1SCC2C(=O)N(C)C(C(C)C)C(=O)OCC(NC(=O)c3cnc4ccccc4n3)C(=O)NC(C)C(=O)N(C)C1C(=O)N(C)C(C(C)C)C(=O)OCC(NC(=O)c1cnc3ccccc3n1)C(=O)NC(C)C(=O)N2C` (centres undefined), the T/C was 106 % of control (dose: 15.0 micrograms/kg/injection, schedule: Q01DX009 (ip), vehicle: saline with Tween-80); 176 % of control (dose: 30.0 micrograms/kg/injection, schedule: Q01DX009 (ip), vehicle: saline); 176 % of control (dose: 32.0 micrograms/kg/injection, schedule: Q01DX009 (ip), vehicle: saline); 121 % of control (dose: 60.0 micrograms/kg/injection, schedule: Q01DX009 (ip), vehicle: saline with Tween-80); 172 % of control (dose: 60.0 micrograms/kg/injection, schedule: Q01DX009 (ip), vehicle: saline); 176 % of control (dose: 64.0 micrograms/kg/injection, schedule: Q01DX009 (ip), vehicle: saline). In addition, the T/C by setting is: (dose: 120.0 micrograms/kg/injection, schedule: Q01DX009 (ip), vehicle: saline) 209 % of control; (dose: 128.0 micrograms/kg/injection, schedule: Q01DX009 (ip), vehicle: saline) 187 % of control; (dose: 240.0 micrograms/kg/injection, schedule: Q01DX009 (ip), vehicle: saline) 181 % of control; (dose: 480.0 micrograms/kg/injection, schedule: Q01DX009 (ip), vehicle: saline with Tween-80) 170 % of control.
Consider `Cc1cc(O)c(Cl)cc1Cl`, for which the T/C under setting [1] was 92 % of control, the T/C under setting [2] is 87 % of control and the T/C under setting [3] is 90 % of control.
For the molecule `O=NN(CCF)C(=O)NC1CCC(=O)NC1=O` (centres undefined), the T/C is 192 % of control (dose: 7.5 mg/kg/injection, schedule: Q01DX001 (ip), vehicle: saline); 194 % of control (dose: 15.0 mg/kg/injection, schedule: Q01DX001 (ip), vehicle: saline); 235 % of control (dose: 30.0 mg/kg/injection, schedule: Q01DX001 (ip), vehicle: saline); 233 % of control (dose: 60.0 mg/kg/injection, schedule: Q01DX001 (ip), vehicle: saline).
Turning to `CC[n+]1c(-c2ccccc2)c2cc(N)ccc2c2ccc(N)cc21`, the T/C (dose: 0.75 mg/kg/injection, schedule: Q01DX009 (ip), vehicle: water) is 97 % of control; the T/C (dose: 1.5 mg/kg/injection, schedule: Q01DX009 (ip), vehicle: water) was 104 % of control; the T/C (dose: 3.0 mg/kg/injection, schedule: Q01DX009 (ip), vehicle: water) is 117 % of control and 97 % of control; the T/C (dose: 6.0 mg/kg/injection, schedule: Q01DX009 (ip), vehicle: water) was 118 % of control; the T/C (dose: 12.0 mg/kg/injection, schedule: Q01DX009 (ip), vehicle: water) is 154 % of control.
Turning to `CC(=O)C(=O)O.CC(=O)C(=O)O.[NH-]C1CCCCC1[NH-].[Pt+2]` (centres undefined), the T/C (dose: 3.12 mg/kg/injection, schedule: Q01DX009 (ip), vehicle: other) was 122 % of control.
As for `COc1ccc(C(=O)C(CN(C)C)CN(C)C)cc1`, the T/C by setting is: (dose: 1.56 mg/kg/injection, schedule: Q01DX009 (ip), vehicle: saline) 92 % of control; under setting [4], 96 % of control; under setting [5], 94 % of control; under setting [6], 97 % of control; under setting [7], 102 % of control.
Consider `O=C(NC1CCCCC1)OCc1c(COC(=O)NC2CCCCC2)c(-c2ccc(Cl)c(Cl)c2)n2c1CCC2`, for which the T/C is 190 % of control under setting [8]; 162 % of control and 222 % of control under setting [9]; 199 % of control and 235 % of control under setting [10]; 203 % of control and 316 % of control under setting [11]; 181 % of control and 214 % of control (dose: 200.0 mg/kg/injection, schedule: Q01DX009 (ip), vehicle: saline with Tween-80); 112 % of control (dose: 400.0 mg/kg/injection, schedule: Q01DX009 (ip), vehicle: saline with Tween-80).
`CCCn1cc2c3c(cccc31)C1C=C(C)CN(C)C1C2` (centres undefined): the T/C runs as follows: (dose: 6.25 mg/kg/injection, schedule: Q01DX009 (ip), vehicle: other) 118 % of control; (dose: 12.5 mg/kg/injection, schedule: Q01DX009 (ip), vehicle: other) 306 % of control; (dose: 25.0 mg/kg/injection, schedule: Q01DX009 (ip), vehicle: other) 91 % of control.
Turning to `COC(CCC(C)C1OC23CC(OC(=O)CC(C(C)O)OC(=O)CC(O)(O2)C(C)CC3(C)C)C1C)c1cccc(O)c1` (centres undefined), the T/C runs as follows: (dose: 12.5 micrograms/kg/injection, schedule: Q01DX009 (ip), vehicle: saline + Tween-80 + alcohol) 96 % of control; (dose: 25.0 micrograms/kg/injection, schedule: Q01DX009 (ip), vehicle: saline + Tween-80 + alcohol) 97 % of control; (dose: 50.0 micrograms/kg/injection, schedule: Q01DX009 (ip), vehicle: saline + Tween-80 + alcohol) 104 % of control; (dose: 100.0 micrograms/kg/injection, schedule: Q01DX009 (ip), vehicle: saline + Tween-80 + alcohol) 102 % of control.
Turning to `C[C@H](N)C(=O)N[C@@H]1[C@H]2C(=C(O)C[C@@H](O)[C@@H]2O)C(=O)O[C@@H]1C`, the T/C under setting [12] was 101 % of control; the T/C (dose: 75.0 mg/kg/injection, schedule: Q01DX009 (ip), vehicle: saline with Tween-80) was 111 % of control; the T/C under setting [1] was 98 % of control; the T/C (dose: 150.0 mg/kg/injection, schedule: Q01DX009 (ip), vehicle: saline with Tween-80) is 120 % of control; the T/C under setting [2] is 111 % of control; the T/C (dose: 300.0 mg/kg/injection, schedule: Q01DX009 (ip), vehicle: saline with Tween-80) is 117 % of control. Further, the T/C was 103 % of control under setting [3] and 113 % of control (dose: 1200.0 mg/kg/injection, schedule: Q01DX009 (ip), vehicle: saline with Tween-80).
For the molecule `C[Si](C)(CCl)N[Si](C)(C)CCl`, the T/C is, setting by setting: under setting [8], 100 % of control; under setting [9], 104 % of control; under setting [10], 99 % of control; under setting [11], 96 % of control.
Regarding `COc1cc(C(=O)N/N=C/c2cccc([N+](=O)[O-])c2)cc(OC)c1OC`, the T/C runs as follows: under setting [8], 88 % of control; under setting [9], 90 % of control.
Consider `[I][Hg][CH2]C1COC([CH2][Hg][I])CO1` (centres undefined), for which the T/C reads like this: (dose: 3.12 mg/kg/injection, schedule: Q01DX009 (ip), vehicle: saline with Tween-80) 93 % of control; under setting [4], 97 % of control; (dose: 6.25 mg/kg/injection, schedule: Q01DX009 (ip), vehicle: saline with Tween-80) 109 % of control; under setting [5], 101 % of control; under setting [8], 113 % of control; under setting [6], 87 % of control. In addition, the T/C is, setting by setting: under setting [9], 119 % of control; under setting [7], 100 % of control; under setting [10], 106 % of control; under setting [12], 99 % of control; under setting [1], 96 % of control.
Turning to `C1OC1CN1CCN(CC2CO2)CC1` (centres undefined), the T/C is, setting by setting: (dose: 4.0 mg/kg/injection, schedule: Q01DX009 (ip), vehicle: saline with Tween-80) 103 % of control; (dose: 16.0 mg/kg/injection, schedule: Q01DX009 (ip), vehicle: saline with Tween-80) 110 % of control.
`COc1ccc2c(c1OC(C)=O)-c1cc(OC(C)=O)cc3c1C(C2)N(C(=O)CN(CCCl)CCCl)CC3` (centres undefined): the T/C is, setting by setting: (dose: 1.56 mg/kg/injection, schedule: Q04DX003 (ip), vehicle: DMSO) 120 % of control; (dose: 3.13 mg/kg/injection, schedule: Q04DX003 (ip), vehicle: DMSO) 120 % of control; (dose: 6.25 mg/kg/injection, schedule: Q04DX003 (ip), vehicle: DMSO) 159 % of control; (dose: 12.5 mg/kg/injection, schedule: Q04DX003 (ip), vehicle: DMSO) 150 % of control; (dose: 25.0 mg/kg/injection, schedule: Q04DX003 (ip), vehicle: DMSO) 150 % of control; (dose: 50.0 mg/kg/injection, schedule: Q04DX003 (ip), vehicle: DMSO) 170 % of control.
`Cc1cc(N2C(=O)CCSC2=S)ccc1Cl`: the T/C is, setting by setting: (dose: 12.5 mg/kg/injection, schedule: Q01DX009 (ip), vehicle: Klucel (hydroxypropylcellulose) (HPC)) 92 % of control and 95 % of control; (dose: 25.0 mg/kg/injection, schedule: Q01DX009 (ip), vehicle: Klucel (hydroxypropylcellulose) (HPC)) 90 % of control and 98 % of control; (dose: 50.0 mg/kg/injection, schedule: Q01DX009 (ip), vehicle: Klucel (hydroxypropylcellulose) (HPC)) 94 % of control; (dose: 100.0 mg/kg/injection, schedule: Q01DX009 (ip), vehicle: Klucel (hydroxypropylcellulose) (HPC)) 94 % of control and 98 % of control; (dose: 200.0 mg/kg/injection, schedule: Q01DX009 (ip), vehicle: Klucel (hydroxypropylcellulose) (HPC)) 90 % of control and 97 % of control.
